Here are results for 26 molecules from ChEMBL document CHEMBL1128691, “Functionally selective M1 muscarinic agonists. 3. Side chains and azacycles contributing to functional muscarinic selectivity among pyrazinylazacycles” (J Med Chem, 1995).

pIC50: −log10 of the molar value.

The test system of experiment [1] is A9. As to the kind of experiment: Stimulating PI (phosphoinositol) hydrolysis in A9L-m1 cells. The format is functional, Mus musculus.
The subject of experiment [2] is Mus musculus. Put plainly: Effect on salivation in mice, after intraperitoneal administration of 10 mg/kg, activity expressed as a score using a scale of 0-2. The format is functional.
The target of experiment [3] is T1, Muscarinic acetylcholine receptor M1 (Rattus norvegicus, UniProt P08482).
T1 sequence (P08482 whole entry): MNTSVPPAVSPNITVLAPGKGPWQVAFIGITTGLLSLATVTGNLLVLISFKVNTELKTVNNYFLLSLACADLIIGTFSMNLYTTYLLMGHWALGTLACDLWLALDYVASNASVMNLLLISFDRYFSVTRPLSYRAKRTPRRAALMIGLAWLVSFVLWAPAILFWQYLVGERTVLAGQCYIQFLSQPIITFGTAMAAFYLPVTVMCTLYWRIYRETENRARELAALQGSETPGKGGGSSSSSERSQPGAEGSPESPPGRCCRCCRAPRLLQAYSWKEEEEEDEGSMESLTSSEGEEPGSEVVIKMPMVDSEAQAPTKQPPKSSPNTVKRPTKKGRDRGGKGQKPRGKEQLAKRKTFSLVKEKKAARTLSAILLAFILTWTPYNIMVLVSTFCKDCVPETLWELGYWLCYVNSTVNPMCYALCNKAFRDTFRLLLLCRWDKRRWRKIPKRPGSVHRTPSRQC
As to the kind of experiment: Binding activity against muscarinic acetylcholine receptor M1 in rat brain, using [3H]OXO-M as the radioligand. The format is tissue-based.

The target of experiment [4] is T1, Muscarinic acetylcholine receptor M1. Put plainly: Binding activity against muscarinic acetylcholine receptor M1 in rat brain, using [3H]-Pz as the radioligand. The experiment is classed as tissue-based.
Experiment [5] concerns Mus musculus. Put plainly: Minimum effective dose after ip administration, to stimulate salivation in mice. The experiment is classed as functional. The conditions noted are these: read-out: MED.

For orientation: pIC50 means −log10 of the IC50, conventionally taken in molar units. Lower therefore signals a high IC50. `CCCCCCOc1nccnc1[C@@H]1CN2CCC1C2` (stereo not given in full) returned a Max in experiment [1] of 31%. The molecule also registered a Score in experiment [2] of 0.6. In addition, the negative logarithm of the IC50 (pIC50) in experiment [3] was 7.34; in experiment [4] it was 7.24.
In experiment [1], `C[N+](C)(C)CC#CCOC(=O)Nc1cccc(Cl)c1.[Cl-]` displayed a Max of 52%.
Molecule `COc1nccnc1C1CN2CCC1CC2` (stereo not given) had a Max in experiment [1] of 1%. The Score in experiment [2] is 0. Besides, the pIC50 is 7.14 in experiment [3] and 6.95 in experiment [4].
On the same counts, the results for `CCCCCCOc1nccnc1C1=CCCCNC1` are 5%, 0, 6.78 and 7.36.
Molecule `c1cnc(C2CN3CCC2CC3)cn1` (stereo not given) gave a Max in experiment [1] of 80%. Also, the minimal effective dose in experiment [5] is 0.1 mg/kg. The Score in experiment [2] was determined as 1.4. Moreover, the pIC50 in experiment [3] is 8.40; in experiment [4], 7.13.
In experiment [1], `Clc1cncc(C2CN3CCC2CC3)n1` (stereo not given) displayed a Max of 8%. Further, the minimal effective dose in experiment [5] worked out at 3 mg/kg. In addition, the Score in experiment [2] amounted to 1. The results for the negative-log IC50 (pIC50) in experiment [3] and in experiment [4] were 8.34 and 8.33, respectively.
`CCCCCSc1nccnc1C1CN2CCC1CC2` (stereo not given) displayed a Max in experiment [1] of 7%. For the same molecule, the Score in experiment [2] came to 0. Also, the negative logarithm of the IC50 (pIC50) in experiment [3] was 9.15; in experiment [4], 8.96.
For `CCCCCCOc1nccnc1[C@H]1CN2CCCC1C2` (stereo not given in full) the same measures were 12%, 0, 8.40 and 8.60.
Take `CCCCCCOc1nccnc1C1=CCCCN(C)C1`: in experiment [1], the Max worked out at 2%. In experiment [2], this molecule showed a Score of 0. Moreover, the pIC50 is 6.93 in experiment [3] and 7.59 in experiment [4].
Turning to `CCCCCCOc1nccnc1[C@H]1CN2CCC1CC2`, the Max in experiment [1] came out at 46%. In experiment [2], this molecule displayed a Score of 0. The results for the pIC50 in experiment [3] and in experiment [4] were 7.95 and 7.97, respectively.
Regarding `CCCOc1nccnc1C1CN2CCC1CC2` (stereo not given), the Max in experiment [1] amounted to 4%. The molecule further yielded a Score in experiment [2] of 0. The pIC50 in experiment [3] was 8.05; in experiment [4], 7.72.
In turn, `CCCCCCCOc1nccnc1C1CN2CCC1CC2` (stereo not given) showed a Max in experiment [1] of 35%. The molecule further came in with a Score in experiment [2] of 0. Further, the figures for the pIC50 in experiment [3] and in experiment [4] were 8.00 and 7.89, respectively.
With `CCCCCCOc1nsnc1C1=CCCN(C)C1` [XANOMELINE], the Max in experiment [1] amounted to 55%. The Score in experiment [2] stood at 0.
In experiment [1], `CCCCCOc1nccnc1C1CN2CCC1CC2` (stereo not given) displayed a Max of 32%. Further, the Score in experiment [2] is reported as 0.2. Also, the results for the pIC50 in experiment [3] and in experiment [4] were 8.22 and 8.15, respectively.
Regarding `CCCCOc1nccnc1C1CN2CCC1CC2` (stereo not given), the Max in experiment [1] is listed as 15%. In experiment [2], this molecule yielded a Score of 0. Besides, the negative-log IC50 (pIC50) in experiment [3] was 8.30; in experiment [4] it was 8.00.
`COC(=O)C1=CCCN(C)C1` [ARECOLINE] registered a Max in experiment [1] of 73%. This molecule returned a Score in experiment [2] of 0.
`CCCCCCOc1nccnc1[C@@H]1CN2CCC1CC2` gave a Max in experiment [1] of 33%. In experiment [2], this molecule came in with a Score of 0. The negative-log IC50 (pIC50) in experiment [3] was 8.60; in experiment [4] it was 8.43.
For the molecule `Cc1nccnc1C1CN2CCC1CC2` (stereo not given), the Max in experiment [1] stood at 4%. Also, the minimal effective dose in experiment [5] is 3 mg/kg. The molecule also had a Score in experiment [2] of 2. The pIC50 in experiment [3] was 7.64; in experiment [4], 7.10.
In the case of `CCCCCCSc1nccnc1C1CN2CCC1CC2` (stereo not given), in experiment [1], the Max was found to be 16%. The molecule further gave a Score in experiment [2] of 0. For the same molecule, the figures for the pIC50 in experiment [3] and in experiment [4] were 8.70 and 8.66, respectively.
For `CCOc1nccnc1C1CN2CCC1CC2` (stereo not given) the same measures were 1%, 0, 7.64 and 7.42.
Regarding `CCCCCCOc1nccnc1C1=CCCN(C)C1`, the Max in experiment [1] amounted to 12%. In experiment [2], this molecule came in with a Score of 0.
For `CCCCCCOc1nccnc1[C@@H]1CN2CCCC1C2` (stereo not given in full), the Max in experiment [1] was determined as 4%. The Score in experiment [2] is recorded as 0. In addition, the pIC50 is 6.74 in experiment [3] and 6.92 in experiment [4].
`Clc1nccnc1C1CN2CCC1CC2` (stereo not given) returned a Max in experiment [1] of 13%. Further, the minimal effective dose in experiment [5] came to 10 mg/kg. Besides, the Score in experiment [2] was determined as 1.2. The pIC50 was 7.25 in experiment [3] and 6.74 in experiment [4].
As to `CCCCSc1nccnc1C1CN2CCC1CC2` (stereo not given), the Max in experiment [1] is recorded as 5%. In addition, the Score in experiment [2] is 0. Moreover, the pIC50 in experiment [3] is 9.30; in experiment [4] it was 9.40.
Molecule `CCCCCCOc1nccnc1C1CN2CCC1CC2` (stereo not given) gave a Max in experiment [1] of 40%. This molecule had a Score in experiment [2] of 0. Besides, the negative logarithm of the IC50 (pIC50) in experiment [3] is 8.35; in experiment [4] it was 8.22.
The molecule `CCCCCCOc1nccnc1[C@H]1CN2CCC1C2` (stereo not given in full) showed a Max in experiment [1] of 40%. Further, the minimal effective dose in experiment [5] is 1 mg/kg. The Score in experiment [2] was 1.6. Besides, the pIC50 was 8.25 in experiment [3] and 8.15 in experiment [4].
